# Values of other authors as cited in US9452178B1, “Acne formulations, treatments, and pressure sensitive patches for delivery of acne formulations” (SatisPharma, LLC, priority 2014, dated 2016).
# Conditions: complex with polyvinylpyrrolidone; publication by Rhein et al
smiles,measurement,value
O=C(O)c1ccccc1O [salicylic acid],permeation through the epidermis,prevents its permeation through the epidermis
